We go through 46 compounds from BindingDB's records for doi:10.7270/Q2H70D5W (University of Pittsburgh, 2007).

This assay deals with Gag-Pol polyprotein (Human immunodeficiency virus type 1 group M subtype B (isolate HXB2), UniProt P04585). As to the kind of experiment: HIV-1 RT RNase H inhibitor potency, dose response, biochemical, probe assessment (AID 652). The note with it: pH 8; 23 °C.

In turn, `COC(=O)c1ccc2c(c1)N(Cc1nc(-c3ccc(Cl)cc3)oc1C)C(=O)C1CCCN21` (stereo unspecified) [5-[[2-(4-chlorophenyl)-5-methyl-4-oxazolyl]methyl]-4-oxo-1,2,3,3a-tetrahydropyrrolo[1,2-a]quinoxaline-7-carboxylic acid methyl ester] showed an IC50 of 2.86 µM.
In turn, `CCC(C)Sc1nc2c(c(=O)[nH]c(=O)n2C)n1CC(O)COc1cccc2ccccc12` (stereo unspecified) [SMR000009990] registered an IC50 of 4 µM.
As to `CCOC(=O)CSc1nc2cc(C(=O)NCc3ccco3)ccc2c(=O)n1-c1ccc(F)cc1` [2-[[3-(4-fluorophenyl)-7-(2-furfurylcarbamoyl)-4-keto-quinazolin-2-yl]thio]acetic acid ethyl ester], the IC50 is 13.1 µM.
Turning to `Cc1cc(C(=O)CSc2nnc(-c3ccc(OC(F)F)cc3)o2)c(C)n1Cc1cccs1` [2-[[5-[4-(difluoromethoxy)phenyl]-1,3,4-oxadiazol-2-yl]sulfanyl]-1-[2,5-dimethyl-1-(thiophen-2-ylmethyl)pyrrol-3-yl]ethanone], the IC50 was 1.88 µM.
For `C=CCSc1nc2c(c(=O)[nH]c(=O)n2C)n1CC` [7-ethyl-3-methyl-8-prop-2-enylsulfanylpurine-2,6-dione], half-maximal inhibition (IC50) required 3.75 µM.
The compound `Cc1sc2nc(C(C)Nc3ccccc3N3CCOCC3)[nH]c(=O)c2c1C` (stereo unspecified) [5,6-dimethyl-2-[1-[2-(4-morpholinyl)anilino]ethyl]-3H-thieno[2,3-d]pyrimidin-4-one] displayed an IC50 of 14.4 µM.
With `CC(C)c1nc2sc3c(SCC(=O)NCc4ccco4)ncnc3c2c2c1CCC2` [MLS000082582], 2.28 µM corresponded to half-maximal inhibition (IC50).
`CCOc1cc(C2c3c(oc4cc(C)c(Cl)cc4c3=O)C(=O)N2Cc2ccco2)ccc1O` (stereo unspecified) [7-chloranyl-1-(3-ethoxy-4-oxidanyl-phenyl)-2-(furan-2-ylmethyl)-6-methyl-1H-chromeno[2,3-c]pyrrole-3,9-dione] came in with an IC50 of 6.99 µM.
`C=CCNC(=O)c1c(N)n(-c2ccc3c(c2)OCO3)c2nc3ccccc3nc12` [2-amino-1-(1,3-benzodioxol-5-yl)-N-prop-2-enyl-3-pyrrolo[3,2-b]quinoxalinecarboxamide] gave an IC50 of 32.7 µM.
In the case of `Cc1ccc2c(SCC(=O)NCc3ccco3)nc(-c3ccc(F)cc3)nc2c1` [2-[2-(4-Fluoro-phenyl)-7-methyl-quinazolin-4-ylsulfanyl]-N-furan-2-ylmethyl-acetamide], the IC50 is 3.34 µM.
`N#Cc1c(NC(=O)c2ccc(Cn3cc(Br)cn3)o2)sc2c1CCCCCC2` [5-[(4-bromanylpyrazol-1-yl)methyl]-N-(3-cyano-4,5,6,7,8,9-hexahydrocycloocta[b]thiophen-2-yl)furan-2-carboxamide]: the half-maximal inhibitory concentration (IC50) was found to be 1.38 µM.
With `COC(=O)c1cccc(N2C(=O)C(Cl)=C(N3CCOCC3)C2=O)c1` [SMR000014938] the figure was over 50 µM.
`COc1ccc(CC(=O)Nc2ccc(-c3noc(-c4cccc(OC)c4)n3)cc2)cc1` [2-(4-methoxyphenyl)-N-[4-[5-(3-methoxyphenyl)-1,2,4-oxadiazol-3-yl]phenyl]acetamide] came in with an IC50 of 3.07 µM.
With `CCOC(=O)C(C(C)=O)c1c(Br)c(O)c(O)c2c(C(=O)c3ccc(C)cc3)coc12` (stereo unspecified) [2-(6-bromo-4,5-dihydroxy-3-p-toluoyl-benzofuran-7-yl)-3-keto-butyric acid ethyl ester] the figure was 0.421 µM.
As to `COc1cc(C2CC(=O)N3CN(c4ccccc4C)CSC3=C2C#N)cc(OC)c1OC` (stereo unspecified) [3-(2-methylphenyl)-6-oxidanylidene-8-(3,4,5-trimethoxyphenyl)-2,4,7,8-tetrahydropyrido[2,1-b][1,3,5]thiadiazine-9-carbonitrile], the 50% inhibitory concentration (IC50) is 4.1 µM.
Turning to `COC(=O)c1ccc2c(=O)n(Cc3ccco3)c(SCC(=O)Nc3ccccc3Cl)nc2c1` [2-[[2-(2-chloroanilino)-2-keto-ethyl]thio]-3-(2-furfuryl)-4-keto-quinazoline-7-carboxylic acid methyl ester], 4.65 µM corresponded to half-maximal inhibition (IC50).
Turning to `CC(C)C1N=C2c3ccccc3N=C(SCC(=O)c3ccc(O)c(O)c3)N2C1=O` (stereo unspecified) [MLS000094866], 0.59 µM corresponded to half-maximal inhibition (IC50).
`COc1cccc(-c2nnc(NC(=O)c3ccc(S(=O)(=O)N(CC(C)C)CC(C)C)cc3)o2)c1` [4-(diisobutylsulfamoyl)-N-[5-(3-methoxyphenyl)-1,3,4-oxadiazol-2-yl]benzamide] came in with a half-maximal inhibitory concentration (IC50) of 4.77 µM.
With `Cc1ccc(-n2nc(C)c3c2NC(=O)CSC3c2ccc3c(c2)OCO3)cc1` (stereo unspecified) [4-(1,3-benzodioxol-5-yl)-3-methyl-1-(4-methylphenyl)-2,4-dihydropyrazolo[3,4-e][1,4]thiazepin-7-one] the figure was 5.2 µM; with `COc1ccc(-c2nsc(SCC(=O)Nc3cc(C)on3)n2)cc1` [2-[[3-(4-methoxyphenyl)-1,2,4-thiadiazol-5-yl]sulfanyl]-N-(5-methyl-1,2-oxazol-3-yl)acetamide], 3.01 µM.
`Cc1sc(-n2c(C)cc(C=Nn3cnnc3)c2C)c(C#N)c1C`: half-maximal inhibition (IC50) was put at 2.22 µM.
Turning to `N#CC1C(=N)SC(=N)C(C#N)C1c1ccnc2ccccc12` (stereo unspecified) [2,6-bis(azanyl)-4-quinolin-4-yl-4H-thiopyran-3,5-dicarbonitrile], the half-inhibitory concentration (IC50) turned out to be 13.7 µM.
As to `O=C(NCc1ccco1)c1cc2cc3ccc(Cl)cc3nc2o1` [7-chloranyl-N-(furan-2-ylmethyl)furo[2,3-b]quinoline-2-carboxamide], the IC50 was determined as 19.2 µM.
As for `N#Cc1c(NC(=O)CN2CCN(S(=O)(=O)c3ccc4c(c3)OCCO4)CC2)sc2c1CCC2` [MLS000053165], the IC50 was found to be 3.48 µM.
In the case of `COc1cc(-c2nnc3sc(Cc4ccc(Cl)cc4)nn23)cc(OC)c1OC` [6-(4-chlorobenzyl)-3-(3,4,5-trimethoxyphenyl)-[1,2,4]triazolo[3,4-b][1,3,4]thiadiazole], the IC50 was 1.08 µM.
Turning to `Nc1c(C(=O)N2CCCCC2)sc(=S)n1-c1ccccc1` [(4-amino-3-phenyl-2-sulfanylidene-1,3-thiazol-5-yl)-piperidin-1-ylmethanone], the IC50 amounted to 1.85 µM.
As for `CC1=C(SCCC#N)S/C(=C2\SC(C)=C(SCCC#N)S2)S1` [SMR000011057], the midpoint of inhibition, the IC50, lay at 2.8 µM.
As for `Cc1nn(CCc2nc(-c3ccco3)cs2)c2nc(O)cc(C(F)(F)F)c12` [SMR000060922], the IC50 stood at 1.97 µM.
With `O=c1c(=Cc2cccn2-c2ccccc2)sc2nc3ccccc3n12` [2-[(1-phenyl-2-pyrrolyl)methylidene]-1-thiazolo[3,2-a]benzimidazolone] the figure was 2.83 µM; with `COC(=O)c1oc2ccc(Br)cc2c1NC(=O)c1ccccc1` [3-benzamido-5-bromo-2-benzofurancarboxylic acid methyl ester], 0.989 µM.
On to `COc1ccc(N2CSC3=C(C#N)C(c4ccc(OC)c(OC)c4)CC(=O)N3C2)c(OC)c1` (stereo unspecified) [3-(2,4-dimethoxyphenyl)-8-(3,4-dimethoxyphenyl)-6-oxidanylidene-2,4,7,8-tetrahydropyrido[2,1-b][1,3,5]thiadiazine-9-carbonitrile], for which the IC50 stood at 17.8 µM.
For the compound `O=c1c2ccccc2sn1-c1cc(S(=O)(=O)N2CCOCC2)ccc1N1CCOCC1` [2-(2-morpholin-4-yl-5-morpholin-4-ylsulfonyl-phenyl)-1,2-benzothiazol-3-one], the 50% inhibitory concentration (IC50) stood at 0.579 µM.
In turn, `CCOC(=O)c1c(N)sc2c1CCC1C(=O)N(C3CCCCC3)C(=O)C21` (stereo unspecified) [2-amino-7-cyclohexyl-6,8-diketo-4,5,5a,8a-tetrahydrothien[2,3-e]isoindole-3-carboxylic acid ethyl ester] came in with a concentration for half-maximal inhibition (IC50) of 4.84 µM.
On to `CC(=O)C(C(C)=O)c1c(Cl)c(O)c(O)c2c(C(=O)c3ccccc3)coc12` [3-(3-benzoyl-6-chloro-4,5-dihydroxy-1-benzofuran-7-yl)pentane-2,4-dione], for which it took 0.384 µM to reach half-maximal inhibition (IC50).
With `CCOC(=O)N1CCC2=C(C#N)C(=N)C(C#N)(C#N)[C@H](c3ccc(OC(C)C)c(OCC)c3)[C@H]2C1` [(8S,8aR)-6-amino-5,7,7-tricyano-8-(3-ethoxy-4-isopropoxy-phenyl)-1,3,8,8a-tetrahydroisoquinoline-2-carboxylic acid ethyl ester] the figure was 21.7 µM.
Turning to `CCCCCC#CCC#CCC#CCC#CCCCC(=O)O`, inhibition was half-maximal at 0.794 µM (IC50).
`Cc1cc(NC(=O)CSc2nc(C3CC3)nc3sc4c(c23)CCC(C)C4)no1` (stereo unspecified) [2-(2-Cyclopropyl-7-methyl-5,6,7,8-tetrahydro-benzo[4,5]thieno[2,3-d]pyrimidin-4-ylsulfanyl)-N-(5-methyl-isoxazol-3-yl)-acetamide] returned a concentration for half-maximal inhibition (IC50) of 5.41 µM.
The compound `N#Cc1c(SCC(=O)Nc2nccs2)nc2c(c1-c1ccco1)CCCC2` [2-[[3-cyano-4-(2-furanyl)-5,6,7,8-tetrahydroquinolin-2-yl]thio]-N-(2-thiazolyl)acetamide] returned an IC50 of 4.3 µM.
With `O=c1c2ccccc2[se]n1-c1ccccc1` [2-Phenyl-benzo[d]isoselenazol-3-one] the figure was over 50 µM.
For the compound `Cc1cccc(N2CSC3=C(C#N)C(c4ccc(C)o4)CC(=O)N3C2)c1` (stereo unspecified) [MLS000080648], the half-inhibitory concentration (IC50) worked out at 0.434 µM.
In turn, `CCc1ccccc1N1CSC2=C(C#N)C(c3cc(OC)c(OC)cc3OC)CC(=O)N2C1` (stereo unspecified) [3-(2-ethylphenyl)-6-oxidanylidene-8-(2,4,5-trimethoxyphenyl)-2,4,7,8-tetrahydropyrido[2,1-b][1,3,5]thiadiazine-9-carbonitrile] had an IC50 of 2.91 µM.
Consider `COC(=O)c1ccc2c(=O)n(Cc3ccco3)c(SCC(=O)Nc3ccc(C)c(Cl)c3)nc2c1` [2-[[2-(3-chloro-4-methyl-anilino)-2-keto-ethyl]thio]-3-(2-furfuryl)-4-keto-quinazoline-7-carboxylic acid methyl ester], for which the IC50 worked out at 2.79 µM.
In turn, `O=C(NC1CCCCC1)c1sc(=S)n2c1[nH]c(=O)c1ccccc12` [SMR000030293] showed a concentration for half-maximal inhibition (IC50) of 0.645 µM.
Take `CN(C)c1ccc2c(c1)N=C(c1ccco1)OP2(=S)N1CCOCC1` (stereo unspecified) [3-(2-furanyl)-N,N-dimethyl-1-(4-morpholinyl)-1-sulfanylidene-2,4,1-benzoxazaphosphorin-6-amine]: the half-maximal inhibitory concentration (IC50) is 1.66 µM.
With `COC(=O)c1ccccc1NC(=O)c1sc(=S)n(C)c1N` [2-[(4-amino-3-methyl-2-thioxo-4-thiazoline-5-carbonyl)amino]benzoic acid methyl ester] the figure was 4.43 µM; with `CC1CCN(S(=O)(=O)c2ccc(NC(=O)Cn3nnc(-c4ccccc4)n3)cc2)CC1` [MLS000032813], 22 µM.

What is called IC50 is the concentration that inhibits the measured activity by half. Low readings indicate greater potency, high ones weaker potency.
